Test results as given in ChEMBL document CHEMBL3431459, “Roche carnitine palmitoyltransferase modulator screening data (supplementary data associated with the publication CHEMBL2216752)”.
In brackets after ≈: the same amount, converted by molar mass.

Columns and labels:
[1] = target: T1, Carnitine O-palmitoyltransferase 1, muscle isoform (Homo sapiens, UniProt Q92523); experiment: SUPPLEMENTARY: Inhibition of Carnitine palmitoyltransferase 1, muscle isoform; design: species or system Muscle tissue
T1 sequence (Q92523 whole entry): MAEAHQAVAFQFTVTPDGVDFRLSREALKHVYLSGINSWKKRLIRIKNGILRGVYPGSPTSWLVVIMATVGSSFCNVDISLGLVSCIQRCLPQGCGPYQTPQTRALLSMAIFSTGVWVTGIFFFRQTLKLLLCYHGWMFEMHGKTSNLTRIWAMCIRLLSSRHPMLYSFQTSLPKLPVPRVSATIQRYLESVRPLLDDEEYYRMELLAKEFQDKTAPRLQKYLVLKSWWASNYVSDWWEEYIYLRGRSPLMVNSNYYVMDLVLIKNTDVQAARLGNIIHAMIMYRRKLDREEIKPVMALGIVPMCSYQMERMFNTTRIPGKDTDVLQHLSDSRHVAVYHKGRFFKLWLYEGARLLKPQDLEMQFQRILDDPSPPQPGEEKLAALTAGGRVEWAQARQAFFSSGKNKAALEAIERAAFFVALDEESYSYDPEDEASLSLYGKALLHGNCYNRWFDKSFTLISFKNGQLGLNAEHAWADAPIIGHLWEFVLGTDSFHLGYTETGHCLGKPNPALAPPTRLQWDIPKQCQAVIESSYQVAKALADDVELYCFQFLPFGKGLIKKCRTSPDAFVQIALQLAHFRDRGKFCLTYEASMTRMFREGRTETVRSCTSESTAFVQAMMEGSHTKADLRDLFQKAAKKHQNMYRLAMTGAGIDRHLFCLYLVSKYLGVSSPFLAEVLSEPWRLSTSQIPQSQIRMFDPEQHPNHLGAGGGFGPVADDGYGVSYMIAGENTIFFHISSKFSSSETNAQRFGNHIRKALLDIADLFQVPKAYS

[2] = target: T2, Carnitine O-palmitoyltransferase 2, mitochondrial (Homo sapiens, UniProt P23786); experiment: (§1) SUPPLEMENTARY: Inhibition of Carnitine palmitoyltransferase 2
T2 sequence (P23786 whole entry): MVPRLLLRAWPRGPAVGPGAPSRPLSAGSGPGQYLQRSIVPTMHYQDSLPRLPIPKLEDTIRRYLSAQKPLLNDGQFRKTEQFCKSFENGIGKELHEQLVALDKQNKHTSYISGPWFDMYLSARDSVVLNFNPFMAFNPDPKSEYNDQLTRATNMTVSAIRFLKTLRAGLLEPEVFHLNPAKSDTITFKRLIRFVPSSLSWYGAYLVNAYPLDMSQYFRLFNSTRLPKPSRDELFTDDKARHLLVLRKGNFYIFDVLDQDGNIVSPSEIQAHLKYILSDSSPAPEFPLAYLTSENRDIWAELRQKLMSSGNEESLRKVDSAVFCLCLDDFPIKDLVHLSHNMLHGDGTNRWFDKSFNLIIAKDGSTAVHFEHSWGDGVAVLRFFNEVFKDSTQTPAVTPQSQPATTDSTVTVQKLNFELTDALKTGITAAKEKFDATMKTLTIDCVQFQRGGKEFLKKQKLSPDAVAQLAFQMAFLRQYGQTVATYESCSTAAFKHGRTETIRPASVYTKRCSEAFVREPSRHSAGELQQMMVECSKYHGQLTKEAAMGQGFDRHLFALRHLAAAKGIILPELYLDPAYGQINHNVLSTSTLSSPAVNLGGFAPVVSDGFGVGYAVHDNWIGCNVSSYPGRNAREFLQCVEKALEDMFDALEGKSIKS

[3] = target: T3, Carnitine O-palmitoyltransferase 2, mitochondrial (Rattus norvegicus, UniProt P18886); experiment: as §1
T3 sequence (P18886 whole entry): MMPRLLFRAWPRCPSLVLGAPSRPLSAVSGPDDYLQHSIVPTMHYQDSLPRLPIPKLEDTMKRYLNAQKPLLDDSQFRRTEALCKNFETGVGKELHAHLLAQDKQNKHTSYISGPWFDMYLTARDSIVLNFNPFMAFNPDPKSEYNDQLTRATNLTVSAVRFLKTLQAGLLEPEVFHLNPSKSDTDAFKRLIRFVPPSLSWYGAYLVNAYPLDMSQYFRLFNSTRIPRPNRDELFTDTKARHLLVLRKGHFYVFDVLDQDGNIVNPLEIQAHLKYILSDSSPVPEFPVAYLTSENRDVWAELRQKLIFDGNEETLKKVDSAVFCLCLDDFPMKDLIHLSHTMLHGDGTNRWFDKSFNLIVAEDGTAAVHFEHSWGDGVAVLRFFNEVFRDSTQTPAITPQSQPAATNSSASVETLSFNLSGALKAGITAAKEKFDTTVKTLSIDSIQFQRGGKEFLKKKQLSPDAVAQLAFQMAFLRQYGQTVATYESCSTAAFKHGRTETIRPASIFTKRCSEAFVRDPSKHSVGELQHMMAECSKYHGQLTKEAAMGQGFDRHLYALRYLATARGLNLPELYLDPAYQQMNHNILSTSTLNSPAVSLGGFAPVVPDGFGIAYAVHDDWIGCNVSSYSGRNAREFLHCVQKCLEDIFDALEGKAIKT

[4] = target: T4, Carnitine O-palmitoyltransferase 1, liver isoform (Homo sapiens, UniProt P50416); experiment: (§2) SUPPLEMENTARY: Inhibition of Carnitine palmitoyltransferase 1, liver isoform
T4 sequence (P50416 whole entry): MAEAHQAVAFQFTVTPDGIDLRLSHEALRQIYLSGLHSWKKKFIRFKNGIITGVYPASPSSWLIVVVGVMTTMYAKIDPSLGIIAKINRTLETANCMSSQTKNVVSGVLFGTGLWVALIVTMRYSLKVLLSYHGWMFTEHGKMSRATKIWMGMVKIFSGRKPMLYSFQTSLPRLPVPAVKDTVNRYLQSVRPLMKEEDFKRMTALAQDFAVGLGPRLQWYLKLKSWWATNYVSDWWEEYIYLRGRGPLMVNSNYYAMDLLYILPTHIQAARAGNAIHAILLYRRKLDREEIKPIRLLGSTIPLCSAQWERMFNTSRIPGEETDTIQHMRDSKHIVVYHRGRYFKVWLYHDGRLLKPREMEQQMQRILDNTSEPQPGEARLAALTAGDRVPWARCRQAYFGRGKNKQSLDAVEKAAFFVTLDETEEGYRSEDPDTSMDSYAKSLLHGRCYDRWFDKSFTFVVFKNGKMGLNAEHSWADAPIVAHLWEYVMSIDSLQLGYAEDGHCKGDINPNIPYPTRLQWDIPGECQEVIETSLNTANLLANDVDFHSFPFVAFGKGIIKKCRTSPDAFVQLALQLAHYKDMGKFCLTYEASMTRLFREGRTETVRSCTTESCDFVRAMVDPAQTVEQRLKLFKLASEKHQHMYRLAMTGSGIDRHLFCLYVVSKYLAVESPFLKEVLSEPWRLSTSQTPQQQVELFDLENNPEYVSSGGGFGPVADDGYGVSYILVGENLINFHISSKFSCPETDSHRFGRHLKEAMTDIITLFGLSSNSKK

[5] = target: T5, Carnitine O-palmitoyltransferase 1, liver isoform (Rattus norvegicus, UniProt P32198); experiment: as §2
T5 sequence (P32198 whole entry): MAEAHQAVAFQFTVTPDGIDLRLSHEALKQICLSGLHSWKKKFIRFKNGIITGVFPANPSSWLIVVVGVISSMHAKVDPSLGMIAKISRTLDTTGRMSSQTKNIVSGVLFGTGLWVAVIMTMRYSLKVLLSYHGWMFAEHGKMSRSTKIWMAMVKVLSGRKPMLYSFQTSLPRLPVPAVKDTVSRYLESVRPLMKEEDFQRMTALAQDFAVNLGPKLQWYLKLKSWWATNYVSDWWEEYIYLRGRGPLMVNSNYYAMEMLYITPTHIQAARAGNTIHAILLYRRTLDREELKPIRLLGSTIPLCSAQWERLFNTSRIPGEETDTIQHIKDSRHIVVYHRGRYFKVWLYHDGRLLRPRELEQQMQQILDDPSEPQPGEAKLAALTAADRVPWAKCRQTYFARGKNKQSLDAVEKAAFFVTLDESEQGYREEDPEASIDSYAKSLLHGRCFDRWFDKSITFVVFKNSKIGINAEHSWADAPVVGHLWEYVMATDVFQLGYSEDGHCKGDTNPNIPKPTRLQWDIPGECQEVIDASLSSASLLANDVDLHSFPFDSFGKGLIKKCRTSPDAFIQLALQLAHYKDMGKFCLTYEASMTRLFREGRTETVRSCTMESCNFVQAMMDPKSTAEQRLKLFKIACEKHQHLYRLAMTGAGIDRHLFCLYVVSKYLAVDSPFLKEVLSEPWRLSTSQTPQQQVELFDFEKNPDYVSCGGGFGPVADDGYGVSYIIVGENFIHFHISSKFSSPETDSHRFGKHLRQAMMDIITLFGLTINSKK

[6] = SUPPLEMENTARY: Lyophilisation Solubility Assay (LYSA); type: physicochemical; details: read-out: Kinetic_solubility
[7] = SUPPLEMENTARY: Lipophilicity (log D) Determination by high-throughput shake-flask; type: physicochemical; details: octanol/water
[8] = SUPPLEMENTARY: PAMPA permeability assay; type: physicochemical; details: read-out: Permeability

Structure (SMILES)	IC50 [1] [nM]	IC50 [2] [nM]	IC50 [3] [nM]	IC50 [4] [nM]	IC50 [5] [nM]	solubility kinetic [6] [µg/mL]	logD [7]	Papp [8] [×10⁻⁶ cm/s]
O=C(COc1ccccc1)N1CCCC[C@@H]1c1noc(-c2cccc3[nH][nH]c(=O)c23)n1	7620	6260	7630	99.8	93.1	46 (≈ 110 µM)	2.53	6.44
CCOc1ccc(C(=O)Nc2ccc(CC(=O)O)cc2)cc1N(CCS(=O)O)S(=O)(=O)c1cc(Cl)ccc1OC	634	> 100000	> 100000	105	408	577 (≈ 944 µM)	< -1	0.04
Cc1cc(-c2nc([C@H]3CCCCN3C(=O)COc3ccccc3)no2)on1	> 100000	> 100000	> 100000	116	144	41 (≈ 111 µM)	2.6	9.63
Cc1cccc(S(=O)(=O)N2CCOc3ccc(C(=O)Nc4nc(CC(=O)O)cs4)cc32)c1	1080	> 100000	> 100000	56.1	55.2	> 631	0.14	3.08
NC(=O)c1cccc(-c2n[nH]c([C@H]3CCCCN3C(=O)COc3ccccc3)n2)c1	> 100000	> 100000	> 100000	93.1	563	161 (≈ 397 µM)	2.16	2.25
CC(=O)Nc1cccc(-c2n[nH]c([C@H]3CCCCN3C(=O)COc3ccccc3)n2)c1	> 100000	98300	> 100000	53.7	340	136 (≈ 324 µM)	2.61	2.88
COc1ccc(Cl)cc1S(=O)(=O)N1CCOc2c(F)cc(C(=O)Nc3ccc(CC(=O)O)cc3)cc21	750	> 100000	> 100000	150	84.7	565 (≈ 1060 µM)	0.47	2.79
O=C1Nc2ccc(-c3noc([C@H]4CCCCN4C(=O)COc4ccccc4)n3)cc2CO1	> 100000	4740	> 100000	98.2	154	8 (≈ 18.4 µM)	2.89	3.59
COC1CCC(c2nc([C@H]3CCCCN3C(=O)COc3ccccc3)no2)CC1 (stereo not given in full)	> 100000	78400	> 100000	191	222	50.5 (≈ 126 µM)	2.83	3.5
COc1ccc(Cl)cc1S(=O)(=O)N1COc2ccc(C(=O)Nc3ccc(CC(=O)O)cc3)cc21	504	> 100000	> 100000	159	165	46 (≈ 91.5 µM)	0.28	3.01
COc1ccc(Cl)cc1S(=O)(=O)N1CCCc2ccc(C(=O)Nc3ccc(C(=O)O)c(F)c3)cc21	3020	2800	10200	38.1	47.7	182 (≈ 351 µM)	0.55	1.77
CN(C)C(=O)CCC(=O)Nc1cc(F)cc(-c2noc([C@H]3CCCCN3C(=O)COc3ccccc3)n2)c1	> 100000	14100	> 100000	111	253	< 1	3.16	0.83
O=C(COc1ccccc1)N1CCCC[C@@H]1c1noc(-c2ccc(-n3cnnn3)cc2)n1	> 100000	15000	> 100000	98.6	98.1	8 (≈ 18.5 µM)	2.92	1.7
CC(=O)Nc1cccc(C#C[C@H]2CCCCN2C(=O)COc2ccccc2)c1	> 100000	> 100000	> 100000	108	191	< 1	3.49	1.79
O=C(COc1ccccc1)N1CCCC[C@@H]1c1noc(C2CCCCC2)n1	> 100000	47600	> 100000	86.5	664	< 1	3.31	0.965
